Measurements reported in ChEMBL document CHEMBL2440031, “Benzochalcones bearing pyrazoline moieties show anti-colorectal cancer activities and selective inhibitory effects on aurora kinases” (Bioorg Med Chem, 2013).
The source made the active and inactive calls. The rule behind the calls is not given here.

Legend:
HCT-116 [1] = assay: Cytotoxicity against human HCT116 cells after 7 days using crystal violet staining by clonogenic survival assay; format: functional, cell-based; settings: HCT-116, 168 h
HCT-116 [2] = assay: Increase of cyclin-D1 expression in human HCT116 cells at 40 uM after 12 hrs by Western blot analysis; format: functional, cell-based
HCT-116 [3] = assay: Increase of CDK expression in human HCT116 cells at 40 uM by Western blot analysis; format: functional, cell-based; settings: TDE = time-dependent effect
HCT-116 [4] = assay: Decrease of cyclin-B1 expression in human HCT116 cells at 40 uM after 24 hrs by Western blot analysis; format: functional, cell-based
HCT-116 [5] = assay: Cell cycle arrest in human HCT116 cells assessed as accumulation at sub-G1 phase accumulation at 40 uM after 12 to 48 hrs using propidium iodide staining by flow cytometric analysis relative to total cells; format: functional
HCT-116 [6] = assay: Increase of cyclin-D1 expression in human HCT116 cells at 40 uM after 24 to 48 hrs by Western blot analysis; format: functional, cell-based
HCT-116 [7] = assay: Cell cycle arrest in human HCT116 cells assessed as decrease of G2/M phase accumulation at 40 uM after 12 to 48 hrs using propidium iodide staining by flow cytometric analysis; format: functional, cell-based
HCT-116 [8] = assay: Cell cycle arrest in human HCT116 cells assessed as increase of G1 phase accumulation at 40 uM after 12 to 48 hrs using propidium iodide staining by flow cytometric analysis; format: functional, cell-based
HCT-116 [9] = assay: Cytotoxicity against human HCT116 cells after 24 to 48 hrs by WST-8 assay; format: functional, cell-based
HCT-116 [10] = assay: Cell cycle arrest in human HCT116 cells assessed as decrease of S phase accumulation at 40 uM after 12 to 48 hrs using propidium iodide staining by flow cytometric analysis; format: functional, cell-based
HCT-116 [11] = assay: Cytotoxicity against human HCT116 cells up to 40 uM by WST-8 assay; format: functional, cell-based; settings: TDE = time-dependent effect
HCT-116 [12] = assay: Increase of p21 expression in human HCT116 cells at 40 uM by Western blot analysis; format: functional, cell-based; settings: TDE = time-dependent effect
HCT-116 [13] = assay: Effect on cyclin-A1 expression in human HCT116 cells at 40 uM after 12 to 48 hrs by Western blot analysis; format: functional, cell-based

`COc1cccc(C2CC(c3c(O)ccc4ccccc34)=NN2)c1OC` (stereo not drawn) showed an IC50 (HCT-116 [1]) of 6.3 µM.

With `COc1cc(OC)c(C2CC(c3c(O)ccc4ccccc34)=NN2c2ccc(Cl)cc2)cc1OC` (stereo not drawn) the IC50 (HCT-116 [1]) was 7.8 µM.

Work on `COc1cccc(C2CC(c3ccc4ccccc4c3O)=NN2)c1OC` (stereo not drawn) yielded an IC50 (HCT-116 [1]) of 15.2 µM.

For `COc1ccc(C2CC(c3c(O)ccc4ccccc34)=NN2)cc1` (stereo not drawn), the IC50 (HCT-116 [1]) was 7.8 µM.

With `COc1ccc(C2CC(c3ccc4ccccc4c3O)=NN2)cc1` (stereo not drawn) the IC50 (HCT-116 [1]) was 13.2 µM.

For `COc1ccc(C2CC(c3ccc4ccccc4c3O)=NN2)c(OC)c1OC` (stereo not drawn), the IC50 (HCT-116 [1]) was 11.3 µM.

In the case of `COc1cccc(C2CC(c3ccc4ccccc4c3O)=NN2)c1` (stereo not drawn), the IC50 (HCT-116 [1]) is reported as 20.8 µM.

For `COc1ccc(C2CC(c3c(O)ccc4ccccc34)=NN2c2ccc(Cl)cc2)c(OC)c1` (stereo not drawn), the IC50 (HCT-116 [1]) was 5.4 µM.

For `COc1cc(OC)cc(C2CC(c3ccc4ccccc4c3O)=NN2)c1` (stereo not drawn), the IC50 (HCT-116 [1]) was 4.7 µM.

With `COc1cc(OC)cc(C2CC(c3c(O)ccc4ccccc34)=NN2)c1` (stereo not drawn) the IC50 (HCT-116 [1]) was 5.7 µM.

Compound `COc1ccc(C2CC(c3c(O)ccc4ccccc34)=NN2c2ccc(Cl)cc2)cc1` (stereo not drawn) has an IC50 (HCT-116 [1]) of 9.8 µM.

In the case of `COc1ccc(C2CC(c3ccc4ccccc4c3O)=NN2)c(OC)c1` (stereo not drawn), the IC50 (HCT-116 [1]) is reported as 8.8 µM.

For `COc1cc(OC)c(C2CC(c3ccc4ccccc4c3O)=NN2)cc1OC` (stereo not drawn), the IC50 (HCT-116 [1]) was 9 µM.

`COc1ccccc1C1CC(c2ccc3ccccc3c2O)=NN1` (stereo not drawn) gave an IC50 (HCT-116 [1]) of 17.4 µM.

For `COc1cc(OC)c(C2CC(c3ccc4ccccc4c3O)=NN2)c(OC)c1` (stereo not drawn), the IC50 (HCT-116 [1]) was 32.5 µM.

`COc1ccc(C2CC(c3c(O)ccc4ccccc34)=NN2)c(OC)c1` (stereo not drawn) was tested, and the Activity (HCT-116 [2]) was “Active”, the Activity (HCT-116 [3]) was “tde” and the Activity (HCT-116 [4]) was “Active”. The Activity (HCT-116 [5]) was 21.3%, the IC50 (HCT-116 [1]) was 2.4 µM and the Activity (HCT-116 [6]) was “inactive”. For the same compound, the Activity (HCT-116 [7]) was “Active”, the Activity (HCT-116 [8]) was “Active” and the Activity (HCT-116 [9]) was “Dose-dependent effect”. For the same compound, the Activity (HCT-116 [10]) was “Active”, the Activity (HCT-116 [11]) was “tde” and the Activity (HCT-116 [12]) was “tde”. The Activity (HCT-116 [13]) was “Active”.
